US6737383B1, “Herbicidal oxadiazolidines” (priority 1999, dated 2004)

Assays:
[1] = test system: wheat; assay: Test B pre/postemergence wheat; assay type: in vivo, Triticum aestivum
How it was run: (§1)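 Herbicidal effect was estimated by eye on a ten-point control scale after plants spent twelve to sixteen days in a greenhouse following soil or foliar treatment. Foliar sprays targeted plants at one to four leaves; all doses were formulated in a non-phytotoxic solvent with surfactant.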

[2] = test system: velvetleaf; assay: Test B pre/postemergence velvetleaf; assay type: in vivo, Abutilon theophrasti
How it was run: as §1

[3] = test system: sugar beet; assay: Test B pre/postemergence sugar beet; assay type: in vivo, Beta vulgaris
How it was run: as §1

[4] = test system: cocklebur; assay: Test B pre/postemergence cocklebur; assay type: in vivo, Xanthium strumarium
How it was run: as §1

[5] = test system: surinam grass; assay: Test B pre/postemergence surinam grass; assay type: in vivo, Brachiaria decumbens
How it was run: as §1

[6] = test system: purple nutsedge; assay: Test B pre/postemergence purple nutsedge; assay type: in vivo, Cyperus rotundus
How it was run: as §1

[7] = test system: soybean; assay: Test B pre/postemergence soybean; assay type: in vivo, Glycine max
How it was run: as §1

[8] = test system: blackgrass; assay: Test B pre/postemergence blackgrass; assay type: in vivo, Alopecurus myosuroides
How it was run: as §1

[9] = test system: bamyardgrass; assay: Test B flood test barnyardgrass; assay type: in vivo, Echinochloa crus-galli
How it was run: (§2)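 Each value is a visual injury score relative to controls, with 10 meaning complete control and 0 no effect. Evaluation took place twelve to sixteen days after the 2-leaf-stage plants were treated and kept in the greenhouse.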

[10] = test system: crabgrass; assay: Test B pre/postemergence crabgrass; assay type: in vivo, Digitaria sanguinalis
How it was run: as §1

[11] = test system: duck salad; assay: Test B flood test duck salad; assay type: in vivo, Heteranthera limosa
How it was run: as §2

[12] = test system: corn; assay: Test B pre/postemergence corn; assay type: in vivo, Zea mays
How it was run: as §1

[13] = test system: bedstraw; assay: Test B pre/postemergence bedstraw; assay type: in vivo, Galium aparine
How it was run: as §1

[14] = test system: wild oat; assay: Test B pre/postemergence wild oat; assay type: in vivo, Avena fatua
How it was run: as §1

[15] = test system: smallflower flatsedge; assay: Test B flood test smallflower flatsedge; assay type: in vivo, Cyperus difformis; details: for S. Flatsedge plant response rating: scale of 0 to 10 where 0 is no effect and 10 is complete control
How it was run: as §2

[16] = test system: rice; assay: Test B flood test rice; assay type: in vivo, Oryza sativa
How it was run: as §2

[17] = Preemergence, Rate 31 g/ha, visual rating, scale 0 to 10 (0 no effect, 10 complete control)
[18] = Preemergence, Rate 62 g/ha, scale 0 to 10 (0 no effect, 10 complete control)
[19] = Preemergence, Rate 125 g/ha, 0 is no effect, 10 is complete control
[20] = Preemergence, Rate 250 g/ha, scale 0 to 10, 0 is no effect, 10 is complete control
[21] = Rate 62 g/ha, Postemergence, scale of 0 to 10 where 0 is no effect and 10 is complete control
[22] = Rate 250 g/ha, Postemergence, scale 0 to 10, 0 is no effect, 10 is complete control
[23] = Postemergence, Rate 125 g/ha, scale of 0 to 10 where 0 is no effect and 10 is complete control
[24] = Rate 31 g/ha, Postemergence, scale 0 to 10
[25] = Postemergence (flood test species), Rate 125 g/ha, scale of 0 to 10 where 0 is no effect and 10 is complete control
[26] = Rate 31 g/ha, Postemergence section (flood test species), scale 0 to 10
[27] = Rate 62 g/ha, Postemergence section, flood test species, scale of 0 to 10 where 0 is no effect and 10 is complete control
[28] = Rate 250 g/ha, Postemergence (flood test), scale 0 to 10, 0 is no effect, 10 is complete control

Cc1noc(C)c1-n1c(=O)on(C(=O)N(c2ccc(F)cc2F)C(C)C)c1=O [Compound 156]
6: Crabgrass plant response rating [10, 20]
3: Blackgrass plant response rating [8, 20]
1: Soybean plant response rating [7, 23] | Soybean plant response rating [7, 21] | Plant response rating, Soybean [7, 22]
0: Wheat plant response rating [1, 17] | Wheat plant response rating [1, 18] | Wheat plant response rating (0 to 10 scale) [1, 19] | Wheat plant response rating [1, 20] | Wheat plant response rating [1, 21] | Plant response rating, Wheat [1, 22] | Velvetleaf plant response rating [2, 17] | Velvetleaf plant response rating [2, 18] | Velvetleaf plant response rating (0 to 10 scale) [2, 19] | Velvetleaf plant response rating [2, 20] | Velvetleaf plant response rating [2, 21] | Plant response rating, Velvetleaf [2, 22] | Sugarbeets plant response rating [3, 23] | Sugarbeets plant response rating [3, 17] | Sugarbeets plant response rating [3, 18] | Sugarbeets plant response rating (0 to 10 scale) [3, 19] | Sugarbeets plant response rating [3, 20] | Sugarbeets plant response rating [3, 21] | Plant response rating, Sugarbeets [3, 22] | Cocklebur plant response rating [4, 23] | Cocklebur plant response rating [4, 17] | Cocklebur plant response rating [4, 18] | Cocklebur plant response rating (0 to 10 scale) [4, 19] | Cocklebur plant response rating [4, 20] | Cocklebur plant response rating [4, 24] | Cocklebur plant response rating [4, 21] | Plant response rating, Cocklebur [4, 22] | B. signalgrass plant response rating [5, 23] | B. signalgrass plant response rating [5, 17] | B. signalgrass plant response rating [5, 18] | B. signalgrass plant response rating (0 to 10 scale) [5, 19] | B. signalgrass plant response rating [5, 24] | B. signalgrass plant response rating [5, 21] | Plant response rating, B. signalgrass [5, 22] | Nutsedge plant response rating [6, 23] | Nutsedge plant response rating [6, 17] | Nutsedge plant response rating [6, 18] | Nutsedge plant response rating (0 to 10 scale) [6, 19] | Nutsedge plant response rating [6, 20] | Nutsedge plant response rating [6, 24] | Nutsedge plant response rating [6, 21] | Plant response rating, Nutsedge [6, 22] | Soybean plant response rating [7, 17] | Soybean plant response rating [7, 18] | Soybean plant response rating (0 to 10 scale) [7, 19] | Soybean plant response rating [7, 20] | Blackgrass plant response rating [8, 23] | Blackgrass plant response rating [8, 17] | Blackgrass plant response rating [8, 18] | Blackgrass plant response rating (0 to 10 scale) [8, 19] | Blackgrass plant response rating [8, 24] | Blackgrass plant response rating [8, 21] | Plant response rating, Blackgrass [8, 22] | Barnyardgrass plant response rating [9, 25] | Barnyardgrass plant response rating [9, 26] | Barnyardgrass plant response rating [9, 27] | Plant response rating, Barnyardgrass [9, 28] | Crabgrass plant response rating [10, 23] | Crabgrass plant response rating [10, 17] | Crabgrass plant response rating [10, 18] | Crabgrass plant response rating [10, 24] | Crabgrass plant response rating [10, 21] | Plant response rating, Crabgrass [10, 22] | Ducksalad plant response rating [11, 25] | Ducksalad plant response rating [11, 26] | Ducksalad plant response rating [11, 27] | Plant response rating, Ducksalad [11, 28] | Corn plant response rating [12, 23] | Corn plant response rating [12, 17] | Corn plant response rating [12, 18] | Corn plant response rating (0 to 10 scale) [12, 19] | Corn plant response rating [12, 20] | Corn plant response rating [12, 24] | Corn plant response rating [12, 21] | Plant response rating, Corn [12, 22] | Bedstraw plant response rating [13, 23] | Bedstraw plant response rating [13, 17] | Bedstraw plant response rating [13, 18] | Bedstraw plant response rating (0 to 10 scale) [13, 19] | Bedstraw plant response rating [13, 20] | Bedstraw plant response rating [13, 24] | Bedstraw plant response rating [13, 21] | Plant response rating, Bedstraw [13, 22] | Wild oats plant response rating [14, 17] | Wild oats plant response rating [14, 18] | Wild oats plant response rating (0 to 10 scale) [14, 19] | Wild oats plant response rating [14, 20] | Wild oats plant response rating [14, 21] | Plant response rating, Wild oats [14, 22] | S. Flatsedge plant response rating ([15]; Postemergence (flood test species), Rate 125 g/ha) | S. Flatsedge plant response rating ([15]; Rate 62 g/ha, Postemergence section, flood test species) | Plant response rating, S. Flatsedge [15, 28] | Rice plant response rating [16, 25] | Rice plant response rating [16, 26] | Rice plant response rating [16, 27] | Plant response rating, Rice [16, 28]
2: B. signalgrass plant response rating [5, 20]
4: Crabgrass plant response rating (0 to 10 scale) [10, 19]
